Measured values reported in US20100082097A1, “Article Containing Segregated Biguanide and Lewis Acid” (priority 2008, published 2010).

Columns and labels:
Type in all cases: physicochemical
[1] = Brilliant Green-Chlorhexidine formulation in THF/Methanol solvent mixture, observation of solution; conditions: with BG, room temperature
Procedure: 1.04 g Tecoflex 60D and 3.28 g Tecoflex 93A in 65 g were added in a glass jar containing 65 g of Tetrahydrofuran and stirred for four (4) hours at 45° C. Once all resin solids have dissolved, 23 g methanol added into the mixture and stirred for one (1) hour. 2.939 g chlorhexidine diacetate (CHA) was added into the solution mixture and stirred overnight at room temperature. Different Brilliant green (BG) concentrations (0.1 wt %-1.0 wt %) were added per the Table 4 below to an aliquot of the polymer-CHA solution and stirred until Brilliant Green dissolved:
Table 5 below lists different formulations of BG and CHA.

[2] = CHA stability in polyurethane films after ethylene oxide (ETO) sterilization; conditions: polyurethane films containing only CHA
Procedure: (§1) Degradation is reported in the following examples as measured by HPLC as peak area of the degradant peak divided by the total peak area of the chlorhexidine peak and the degradant peak (i.e. Peak Areadegradant/[Peak Areadegradant+Peak Areachlorhexidine]*100). The peak areas are determined from integration of chromatograms.
(§2) A high pressure liquid chromatography (HPLC) analytical method was developed to quantify Gentian violet and chlorhexidine. Both compounds have ultraviolet or visible wavelength absorbance, and so were characterized using a UV-Vis diode array detector. Chlorhexidine and Gentian violet are identified by retention times versus a set of external standards. The external standards also form a calibration curve that is used to quantify the chlorhexidine and Gentian violet content in samples. The method is summarized as follows:
The sample preparation method, prior to HPLC analysis, is summarized as follows: samples were placed in centrifuge tubes, to which a volume of tetrahydrofuran (THF) was added (according to cited protocols or per examples). The tubes were vortexed until the sample was completely dissolved. For samples used as medical device coatings where a polymer was also present, a volume of deionized water was then added and the tubes were again vortexed for 10 minutes to precipitate the any polymer in the sample. […]

[3] = CHA stability in polyurethane films containing no GV (HPLC); conditions: vacuum dried and humidified films, 25, 35, 45, 55° C., 20 day incubation
Procedure: as §1, §2
The sample preparation method, prior to HPLC analysis, is summarized as follows: samples were placed in centrifuge tubes, to which a volume of tetrahydrofuran (THF) was added (according to cited protocols or per examples). The tubes were vortexed until the sample was completely dissolved. […]
Samples were analyzed post air drying and post 20 day incubation. […]

[4] = Brilliant Green-Chlorhexidine formulation in DMF/THF solvent mixture, observation of solution; conditions: 40/60 THF/DMF, with BG, room temperature
Procedure: In this experiment 40/60 THF/DMF solvent mixture was used instead of THF/Methanol from Example 17. Different Brilliant green (BG) concentrations (0.1 wt %-1.0 wt %) were added per the Table 5 below to an aliquot of the polymer-CHA solution (in Example 17) and stirred until Brilliant Green dissolved: […]

[5] = GV stability in polyurethane films containing no CHA (HPLC)
From the text: as §2
The sample preparation method, prior to HPLC analysis, is summarized as follows: samples were placed in centrifuge tubes, to which a volume of tetrahydrofuran (THF) was added (according to cited protocols or per examples). The tubes were vortexed until the sample was completely dissolved. For samples used as medical device coatings where a polymer was also present, a volume of deionized water was then added and the tubes were again vortexed for 10 minutes to precipitate the any polymer in the sample. The tubes were then centrifuged for 10 minutes at 4000 RPM to spin the polymer down out of the solution. A small amount of supernatant was transferred to an HPLC vial for analysis.
Polyurethane films, used in the studies described in examples 4-6 and 9-11, were prepared as follows: 500 g of coating solution was prepared by dissolving 3.74% (w/w) Tecoflex 93A resin and 1.17% (w/w) Tecoflex 60D resin in a 74/26% mixture of THF/Methanol. The mixture was stirred until all of the resin was completely dissolved. 3.07% (w/w) chlorhexidine diacetate (CHA) was then added to the coating solution. Solutions containing different concentrations of GV were made by adding 0.1, 0.2, 0.4, 0.6, 0.8 or 1.0% (w/w) GV to 50 g aliquots of the CHA containing coating solution (or resin only solution in the case of GV only coating solution). 0.5 g of the CHA only, GV only, or 0.1-1.0% GV/CHA solutions was added to the bottom of a 30 mL glass vial and allowed to dry under ambient conditions overnight to evaporate the solvent and cast films in the vials. Vacuum dried samples were prepared by further drying the film containing vials at 25° C. under 30 in, Hg for 48 hours. Humidified samples were prepared by adding 75 μL of deionized water to the air dried samples and capping for the duration of the studies.
Gentian violet only films were prepared according to example 2. Half of the vials were then spiked with 75 μL of deionized water and capped to create a 100% humidity environment, while the other half were vacuum dried ([…]) at 25° C. for 48 hours. The vials were then incubated in an oven at 25° C., 35° C., 45° C., and 55° C. for 20 days.
Samples were analyzed post air drying and post 20 day incubation. Sample analysis was performed using the method in Example 1.
Peak area ratios for pararosaniline chlorides are shown in Table 3 at different temperatures for 20 days. The peak area ratios for each temperature are calculated as follows: (Individual peak area)/Σ(individual peak)×100%. The variations are within the limits of experimental error further confirming the stability of GV in polyurethane films containing only GV.

Compound | stirring time after which chlorhexidine diacetate precipitated [1] [min] | stability when ETO sterilized [2] | degradation peaks in the chromatograms [3] | stirring time after which chlorhexidine diacetate precipitated [4] [min] | degradation products detected in the chromatograms ([5]; vacuum dried and humidified GV only films, 25-55° C., 20 days) | Peak area ratio for pararosaniline chlorides ([5]; 0 day control) [%] | Peak area ratio for pararosaniline chlorides ([5]; 25° C. at day 20) [%] | Peak area ratio for pararosaniline chlorides ([5]; 35° C. at day 20) [%] | Peak area ratio for pararosaniline chlorides ([5]; 45° C. at day 20) [%] | Peak area ratio for pararosaniline chlorides ([5]; 55° C. at day 20) [%]
CC(=O)O.CC(=O)O.NC(=N\CCCCCC/N=C(N)/N=C(\N)Nc1ccc(Cl)cc1)/N=C(\N)Nc1ccc(Cl)cc1 [CHA, chlorhexidine diacetate] | 30 | stable when sterilized | no degradation peaks | 30 | – | – | – | – | – | –
CN=C1C=CC(=C(c2ccc(N(C)C)cc2)c2ccc(N(C)C)cc2)C=C1.Cl [Pentamethyl, pentamethylpararosaniline chloride] | – | – | – | – | – | 44 | 43 | 43 | 44 | 43

Second part, the compound after the results:

stirring time after which chlorhexidine diacetate precipitated [1] [min] | stability when ETO sterilized [2] | degradation peaks in the chromatograms [3] | stirring time after which chlorhexidine diacetate precipitated [4] [min] | degradation products detected in the chromatograms ([5]; vacuum dried and humidified GV only films, 25-55° C., 20 days) | Peak area ratio for pararosaniline chlorides ([5]; 0 day control) [%] | Peak area ratio for pararosaniline chlorides ([5]; 25° C. at day 20) [%] | Peak area ratio for pararosaniline chlorides ([5]; 35° C. at day 20) [%] | Peak area ratio for pararosaniline chlorides ([5]; 45° C. at day 20) [%] | Peak area ratio for pararosaniline chlorides ([5]; 55° C. at day 20) [%] | Compound
– | – | – | – | no degradation products were detected | – | – | – | – | – | CN(C)c1ccc(C(=C2C=CC(=[N+](C)C)C=C2)c2ccc(N(C)C)cc2)cc1 [GV, hexa-methyl pararosaniline chloride, reference compound]
– | – | – | – | – | 42 | 43 | 44 | 42 | 45 | CN(C)c1ccc(C(=C2C=CC(=[N+](C)C)C=C2)c2ccc(N(C)C)cc2)cc1.[Cl-] [Hexamethyl, hexamethylpararosaniline chloride]
– | – | – | – | – | 14 | 14 | 13 | 14 | 12 | CN(C)c1ccc(C(=C2C=CC(=[N+](C)C)C=C2)c2ccc(N)cc2)cc1.[Cl-] [Tetramethyl, tetramethylpararosaniline chloride]
